Test results: patent US8853246B2 (Dow AgroSciences LLC, priority 2009, dated 2014)
Where two headings read alike, the source gives them in different places.

Assays:
[1] = test system: Sweetpotato Whitefly-Crawler (Bemisia Tabaci); assay: Insecticidal test for sweetpotato whitefly-crawler in foliar spray assay (col. BEMITA); format: in vivo; settings: Bemisia tabaci, read-out: BEMITA 200 ppm (Corrected % Control, rating)
In short: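 Cotton plants (one 3-5 cm true leaf) infested with whitefly eggs (100-300/plant), held 5-6 days at 82° F, 50% RH until crawlers developed. Sprayed to runoff at 200 ppm (acetone stock diluted in 0.025% Tween 20), four plants per treatment. Live nymphs counted after 8-9 days; % control by Abbott's correction versus solvent check.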

[2] = test system: Green Peach Aphid (Myzus Persicae); assay: Insecticidal test for green peach aphid in foliar spray assay (col. MYZUPE); format: in vivo; settings: Myzus persicae, 72 h, read-out: MYZUPE 200 ppm (Corrected % Control, rating)
In short: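 Cabbage seedlings with 2-3 true leaves, infested with 20-50 wingless adult and nymph aphids one day earlier, sprayed to runoff at 200 ppm (acetone/methanol stock diluted in 0.025% Tween 20), four pots per treatment. After 3 days at ~25 °C, 40% RH, live aphids counted; corrected % control versus solvent-sprayed plants.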

CSCC(C)C(=O)N(C)c1cnc(-c2cncc(F)c2)s1 (stereo not drawn) [Compound 31]
pest or weed control at 200 ppm ([1]; sweetpotato whitefly-crawler): 80 to 100%
pest or weed control at 200 ppm ([2]; green peach aphid): 80 to 100%
melting point: 75 to 77 °C

CCOC(=O)c1nc(-c2cccnc2)sc1NC(=O)C(C)CSC (stereo not drawn) [Compound 395]
pest or weed control at 200 ppm ([1]; sweetpotato whitefly-crawler): < 80%
pest or weed control at 200 ppm ([2]; green peach aphid): < 80%
melting point: 93 to 101 °C

Cc1nc(-c2cccnc2)sc1NC(=O)CCCCl [Compound 209]
pest or weed control at 200 ppm ([1]; sweetpotato whitefly-crawler): < 80%
pest or weed control at 200 ppm ([2]; green peach aphid): 80 to 100%
melting point: 144 to 147 °C

CSCCNC(=O)N(C)c1sc(-c2cccnc2)nc1C [Compound 177]
pest or weed control at 200 ppm ([1]; sweetpotato whitefly-crawler): < 80%
pest or weed control at 200 ppm ([2]; green peach aphid): 80 to 100%
melting point: 115 to 119 °C

Cc1nc(-c2cccnc2)sc1NC(=O)OC(C)C(F)(F)F (stereo not drawn) [Compound 378]
pest or weed control at 200 ppm ([1]; sweetpotato whitefly-crawler): 80 to 100%
pest or weed control at 200 ppm ([2]; green peach aphid): 80 to 100%
melting point: 133 to 137 °C

CN(C(=O)CCS(C)(=O)=O)c1sc(-c2cncc(F)c2)nc1Br [Compound 455]
pest or weed control at 200 ppm ([1]; Abbott's correction formula): 80 to 100%
pest or weed control at 200 ppm ([2]; Abbott's correction formula): 80 to 100%
melting point: 198 to 201 °C

CSC(C)(C)CC(=O)Nc1sc(-c2cccnc2)nc1Cl [Compound 488]
pest or weed control at 200 ppm ([1]; Abbott's correction formula): 80 to 100%
pest or weed control at 200 ppm ([2]; Abbott's correction formula): 80 to 100%
melting point: 113 to 115 °C

CSCCC(=O)N(C)c1sc(-c2cnccc2F)nc1Cl [Compound 515]
pest or weed control at 200 ppm ([1]; Abbott's correction formula): < 80%
pest or weed control at 200 ppm ([2]; Abbott's correction formula): < 80%
melting point: 74 to 76 °C

CSC(C)C(=O)N(C)c1sc(-c2cccnc2)nc1Cl (stereo not drawn) [Compound 361]
pest or weed control at 200 ppm ([1]; sweetpotato whitefly-crawler): < 80%
pest or weed control at 200 ppm ([2]; green peach aphid): 80 to 100%
melting point: 97 to 104 °C

CSCC(C)(C)C(=O)N(C)c1cnc(-c2ccc(Cl)nc2)s1 [Compound 68]
pest or weed control at 200 ppm ([1]; sweetpotato whitefly-crawler): 80 to 100%
pest or weed control at 200 ppm ([2]; green peach aphid): 80 to 100%
melting point: 104 to 108 °C

CN(C(=O)CC[S+](C)[O-])c1sc(-c2cncc(F)c2)nc1Br (stereo not drawn) [Compound 454]
pest or weed control at 200 ppm ([1]; Abbott's correction formula): 80 to 100%
pest or weed control at 200 ppm ([2]; Abbott's correction formula): 80 to 100%
melting point: 170 to 173 °C

CSCCC(=O)Nc1sc(-c2cccnc2)nc1SC [Compound 589, 3-(methylthio)-N-(4-(methylthio)-2-(pyridin-3-yl)thiazol-5-yl)propanamide]
pest or weed control at 200 ppm ([1]; Abbott's correction formula): < 80%
pest or weed control at 200 ppm ([2]; Abbott's correction formula): < 80%
melting point: 72 to 74 °C

COC(=O)Nc1sc(-c2cccnc2)nc1C [Compound 202]
pest or weed control at 200 ppm ([1]; sweetpotato whitefly-crawler): < 80%
pest or weed control at 200 ppm ([2]; green peach aphid): < 80%
melting point: 159 to 160 °C

Cc1nc(-c2cncc(F)c2)sc1NC(=O)C1CCSC1 (stereo not drawn) [Compound 219]
pest or weed control at 200 ppm ([1]; sweetpotato whitefly-crawler): < 80%
pest or weed control at 200 ppm ([2]; green peach aphid): 80 to 100%
melting point: 209 to 213 °C

Cc1nc(-c2cncc(F)c2)sc1NC(=O)C(C)C/S(C)=N\C#N (stereo not drawn) [Compound 163]
pest or weed control at 200 ppm ([1]; sweetpotato whitefly-crawler): < 80%
pest or weed control at 200 ppm ([2]; green peach aphid): 80 to 100%
melting point: 75 to 81 °C

COc1cncc(-c2nc(C)c(NC(=O)OC(C)(C)C)s2)c1 [Compound 175]
pest or weed control at 200 ppm ([1]; sweetpotato whitefly-crawler): < 80%
pest or weed control at 200 ppm ([2]; green peach aphid): < 80%
melting point: 136 to 140 °C

Cc1nc(-c2cncc(F)c2)sc1NC(=O)C(C)CS(C)(=O)=O (stereo not drawn) [Compound 146]
pest or weed control at 200 ppm ([1]; sweetpotato whitefly-crawler): < 80%
pest or weed control at 200 ppm ([2]; green peach aphid): 80 to 100%
melting point: 187 to 189 °C

CSCC(C)(C)C(=O)N(C)c1cnc(-c2cccnc2)s1 [Compound 29]
pest or weed control at 200 ppm ([1]; sweetpotato whitefly-crawler): 80 to 100%
pest or weed control at 200 ppm ([2]; green peach aphid): 80 to 100%
melting point: 92 to 94 °C

CCN(C(=O)CC[S+](C)[O-])c1sc(-c2cccnc2)nc1C (stereo not drawn) [Compound 238]
pest or weed control at 200 ppm ([1]; sweetpotato whitefly-crawler): 80 to 100%
pest or weed control at 200 ppm ([2]; green peach aphid): 80 to 100%
melting point: 89 to 92 °C

Cc1nc(-c2cncc(F)c2)sc1N(C)C(=O)C1CCCN(C(=S)NC2CC2)C1 (stereo not drawn) [Compound 585]
pest or weed control at 200 ppm ([1]; Abbott's correction formula): < 80%
pest or weed control at 200 ppm ([2]; Abbott's correction formula): 80 to 100%
melting point: 190 to 192 °C

Cc1nc(-c2cncc(F)c2)sc1N(C)C(=O)C1CCCN(C(=O)OC(C)(C)C)C1 (stereo not drawn) [Compound 580]
pest or weed control at 200 ppm ([1]; Abbott's correction formula): 80 to 100%
pest or weed control at 200 ppm ([2]; Abbott's correction formula): < 80%
melting point: 51 to 60 °C
